The nature of series [1]: Toxicity in ip dosed NMRI mouse assessed as clonic and tonic convulsions. Format: organism-based. Particulars: in vivo.
Series [2] deals with Mus musculus. Put plainly: Toxicity in ip dosed NMRI mouse assessed as clonic and tonic convulsions assessed as cunvulsive dose. The series is classed as organism-based. The settings on record: in vivo.

As usually defined, the LD50 is the dose at which mortality reaches 50%.

In the case of `C/C=C(/C=O)[C@H]1C[C@H](OC)n2c3c(c4cc(O)ccc42)CCN(C)[C@H]3C1`, the LD50 in series [1] worked out at 75 mg/kg. Besides, the Activity in series [2] was found to be 75 mg/kg.
For `C/C=C(/C=O)[C@H]1C[C@H](OC)n2c3c(c4ccccc42)CCN(C)[C@H]3C1`, the Activity in series [2] was 45.3 mg/kg.
In the case of `C/C=C1\[C@@H]2C[C@H]3c4c(c5cc(O)ccc5n4[C@@H](C2)O[C@H]1OC)CCN3C`, the LD50 in series [1] was determined as 84 mg/kg. Moreover, the Activity in series [2] amounted to 84 mg/kg.
With `C/C=C1\[C@@H]2C[C@H]3c4c(c5cc(O)ccc5n4[C@@H](C2)O[C@@H]1OC)CCN3C`, the 50% lethal dose (LD50) in series [1] was 90 mg/kg. In series [2], the Activity is 80 mg/kg.
With `C/C=C(/C=O)[C@@H]1C[C@H]2c3c(c4ccccc4n3[C@@H](O)C1)CCN2C` [AKAGERINE], the Activity in series [2] amounted to 50 mg/kg.

The values above are taken from ChEMBL document CHEMBL1151337, “New tertiary alkaloids of Strychnos decussata” (J Nat Prod, 1980).
